# Calls of active or inactive are those of the source.
# Tests used:
# [1] = molecular target: T1, High affinity choline transporter 1 (Homo sapiens, UniProt Q9GZV3); assay: human choline transporter blockers, potency – cell-based, 5-point CRC, membrane potential dye, dose response (AID 504840); format: functional
# T1 sequence (Q9GZV3 whole entry): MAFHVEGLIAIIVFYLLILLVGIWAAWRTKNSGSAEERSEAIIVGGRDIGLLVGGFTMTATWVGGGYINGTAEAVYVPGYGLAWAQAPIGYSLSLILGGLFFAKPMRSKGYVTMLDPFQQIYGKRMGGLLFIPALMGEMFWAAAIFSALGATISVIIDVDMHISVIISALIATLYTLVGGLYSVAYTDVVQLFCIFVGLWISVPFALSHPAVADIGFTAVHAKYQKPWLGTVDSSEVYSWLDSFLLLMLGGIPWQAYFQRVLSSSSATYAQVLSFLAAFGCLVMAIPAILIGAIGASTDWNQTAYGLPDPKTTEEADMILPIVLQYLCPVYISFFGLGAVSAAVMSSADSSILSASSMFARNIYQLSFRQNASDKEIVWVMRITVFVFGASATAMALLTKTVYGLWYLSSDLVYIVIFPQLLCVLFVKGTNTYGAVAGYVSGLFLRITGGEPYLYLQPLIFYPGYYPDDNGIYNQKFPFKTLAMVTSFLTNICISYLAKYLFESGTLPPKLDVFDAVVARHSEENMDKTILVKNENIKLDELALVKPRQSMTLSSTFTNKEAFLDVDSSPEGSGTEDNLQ
# [2] = molecular target: T1, High affinity choline transporter 1; assay: human choline transporter blockers, potency – cell-based, 10-point CRC, membrane potential dye, dose response (AID 588401); format: functional;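 note: membrane potential dye fluorescence of choline-evoked depolarization via CHT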
# [3] = HEK-293T viability loss, compound-treated – cell-based, uHTS hits, cytotoxicity control for B/T-cell NF-kB inhibitor project, dose response (AID 489019); format: functional;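 note: IC50 reflects cytotoxicity as loss of cell viability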
# Jurkat = assay: blockers of NF-kB activation in T cells – Jurkat, luciferase reporter, luminescence, B- and T-cell, dose response (AID 489004); format: functional, cell-based; conditions: Homo sapiens;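 note: NF-kB luciferase reporter Jurkat cells stimulated with PMA plus ionomycin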
# [4] = viability loss in HEK293T cells – cell-based, cherry-picks, cytotoxicity control for HIV Vif inhibitor project, dose response (AID 652208); format: functional
# HEK293 = assay: EBV LMP1 TES2 canonical NF-kB signalling blockers – cell-based, HEK293, luciferase, cherry-pick, dose response (AID 588343); format: functional; conditions: Homo sapiens
# [5] = alpha-synuclein stem-loop luciferase translation blockers – H4 neuroglioma cells, luminescence, confirmation (AID 1988); format: functional, cell-based
# [6] = luciferase reporter signal suppression in cells – H4 neuroglioma cells, luminescence, dose response (AID 1990); format: functional, cell-based
# [7] = Luminescence Cell-Based Dose Response HTS to Identify Inhibitors of 5'UTR Stem-Loop Driven Prion Protein mRNA Translation in H4 Neuroglioblastoma Cells. [Related pubchem assays: 1827 (Project Summary), 1813 (Primary HTS)]; format: functional
# [8] = A Cell Based Secondary Assay To Explore Cytotoxicity of Compounds that Sensitize Mycobacterium Tuberculosis to Beta-Lactam Antibiotics.; format: functional
# [9] = molecular target: T2, Polyadenylate-binding protein 1 (Homo sapiens, UniProt P11940); assay: MLLE domain peptide-binding blockers, IC50 – biochemical, fluorescence polarization, FITC-PAM2 peptide, dose response (AID 602259); format: functional; conditions: read-out: IC50_Mean
# T2 sequence (P11940 whole entry, the tested form may be a part): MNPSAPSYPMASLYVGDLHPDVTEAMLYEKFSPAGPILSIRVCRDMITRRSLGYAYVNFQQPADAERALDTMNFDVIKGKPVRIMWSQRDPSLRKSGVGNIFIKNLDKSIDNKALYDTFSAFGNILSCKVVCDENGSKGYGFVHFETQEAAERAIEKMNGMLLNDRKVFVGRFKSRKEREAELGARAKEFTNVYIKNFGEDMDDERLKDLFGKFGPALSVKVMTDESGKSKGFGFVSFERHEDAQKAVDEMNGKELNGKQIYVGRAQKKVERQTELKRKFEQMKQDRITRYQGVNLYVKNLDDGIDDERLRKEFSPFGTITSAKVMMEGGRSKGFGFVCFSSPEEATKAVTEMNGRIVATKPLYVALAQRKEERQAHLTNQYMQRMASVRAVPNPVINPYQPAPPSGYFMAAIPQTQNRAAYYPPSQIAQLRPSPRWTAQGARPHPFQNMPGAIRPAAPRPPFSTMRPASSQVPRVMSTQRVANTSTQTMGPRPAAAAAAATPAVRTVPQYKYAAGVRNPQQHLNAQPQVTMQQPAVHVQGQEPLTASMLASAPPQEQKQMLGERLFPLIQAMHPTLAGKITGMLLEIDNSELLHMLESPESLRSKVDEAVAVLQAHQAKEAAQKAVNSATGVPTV
# Keap1/Nrf2 = Keap1/Nrf2 (Homo sapiens, UniProt Q14145); assay: disruptors of Keap1 binding to Nrf2 peptide – biochemical, fluorescence polarization, cherry-picked samples, dose response (AID 588683)
# Sequence of Keap1/Nrf2 (Q16236 whole entry): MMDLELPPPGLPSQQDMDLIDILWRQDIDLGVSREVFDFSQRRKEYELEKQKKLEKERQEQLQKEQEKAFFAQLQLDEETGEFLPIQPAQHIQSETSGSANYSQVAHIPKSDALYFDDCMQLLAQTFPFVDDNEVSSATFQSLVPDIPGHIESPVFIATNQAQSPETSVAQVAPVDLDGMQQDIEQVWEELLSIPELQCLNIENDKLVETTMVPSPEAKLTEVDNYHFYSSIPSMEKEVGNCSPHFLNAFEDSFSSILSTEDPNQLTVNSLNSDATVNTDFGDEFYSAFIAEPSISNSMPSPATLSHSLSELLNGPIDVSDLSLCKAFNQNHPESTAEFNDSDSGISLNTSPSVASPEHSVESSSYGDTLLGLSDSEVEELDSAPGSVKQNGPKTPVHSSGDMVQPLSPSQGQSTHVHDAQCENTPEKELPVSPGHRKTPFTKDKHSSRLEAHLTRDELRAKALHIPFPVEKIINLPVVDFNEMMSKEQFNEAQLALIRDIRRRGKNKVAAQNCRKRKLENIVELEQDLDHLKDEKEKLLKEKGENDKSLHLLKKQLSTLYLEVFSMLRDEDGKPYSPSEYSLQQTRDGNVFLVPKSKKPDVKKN
# Sequence of Keap1/Nrf2 (Q14145 whole entry): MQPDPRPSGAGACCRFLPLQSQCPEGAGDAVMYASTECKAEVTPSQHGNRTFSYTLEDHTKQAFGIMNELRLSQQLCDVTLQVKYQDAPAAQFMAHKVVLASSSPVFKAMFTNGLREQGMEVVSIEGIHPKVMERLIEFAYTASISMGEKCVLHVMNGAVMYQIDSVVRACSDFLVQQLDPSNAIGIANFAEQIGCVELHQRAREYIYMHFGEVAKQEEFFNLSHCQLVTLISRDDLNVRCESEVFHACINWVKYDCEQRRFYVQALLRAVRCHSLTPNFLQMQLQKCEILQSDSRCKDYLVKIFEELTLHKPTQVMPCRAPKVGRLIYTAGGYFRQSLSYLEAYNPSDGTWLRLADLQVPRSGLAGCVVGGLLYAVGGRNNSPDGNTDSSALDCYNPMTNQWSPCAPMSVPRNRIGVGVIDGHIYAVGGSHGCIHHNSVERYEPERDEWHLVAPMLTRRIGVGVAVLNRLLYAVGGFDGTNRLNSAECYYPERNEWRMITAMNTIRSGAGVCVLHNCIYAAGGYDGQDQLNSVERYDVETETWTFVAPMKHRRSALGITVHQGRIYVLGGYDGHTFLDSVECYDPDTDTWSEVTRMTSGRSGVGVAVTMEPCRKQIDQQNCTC
# Albumin = Albumin (Bos taurus, UniProt P02769); assay: Counterscreen for inhibitors of T-cell receptor (TCR)-CD3 interaction: Fluorescence-based biochemical high throughput dose response assay to identify inhibitors of T-cell receptor (TCR)-CD3 interaction using a TAMRA-labeled BSA probe.; format: functional
# Sequence of Albumin (P02769 whole entry): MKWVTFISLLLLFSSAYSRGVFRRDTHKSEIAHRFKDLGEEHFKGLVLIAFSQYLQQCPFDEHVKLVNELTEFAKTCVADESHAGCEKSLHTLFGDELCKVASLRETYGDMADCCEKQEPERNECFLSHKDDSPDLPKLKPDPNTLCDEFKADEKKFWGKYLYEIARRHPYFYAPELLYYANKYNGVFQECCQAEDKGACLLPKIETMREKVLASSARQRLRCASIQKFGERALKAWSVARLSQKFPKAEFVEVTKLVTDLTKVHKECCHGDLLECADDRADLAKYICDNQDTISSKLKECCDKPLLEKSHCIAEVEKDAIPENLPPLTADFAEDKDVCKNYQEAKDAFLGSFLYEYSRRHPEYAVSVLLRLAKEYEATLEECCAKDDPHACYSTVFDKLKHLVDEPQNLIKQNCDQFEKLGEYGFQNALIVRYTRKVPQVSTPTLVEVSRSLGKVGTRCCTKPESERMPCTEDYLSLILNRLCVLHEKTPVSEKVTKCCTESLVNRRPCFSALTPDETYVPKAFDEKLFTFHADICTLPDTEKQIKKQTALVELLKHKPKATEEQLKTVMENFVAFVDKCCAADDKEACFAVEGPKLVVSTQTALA
# Vero = assay: viability of Vero cells under compound – cytotoxicity control for flavivirus capping enzyme inhibitors (AID 588742); format: functional; conditions: Chlorocebus sabaeus
# [10] = molecular target: T2, Polyadenylate-binding protein 1; assay: MLLE binding blockers, Cy5 peptide tracer – biochemical, fluorescence polarization, Cy5-PAM2 peptide, secondary, miRNA deadenylation inhibitor project, dose response (AID 602260); format: functional; conditions: read-out: IC50_Mean
# Genome polyprotein = Genome polyprotein (dengue virus type 2, UniProt P29990); assay: flavivirus cap methylation enzyme inhibition – biochemical, confirmation dose response, primary screen (AID 588689); format: functional
# Sequence of Genome polyprotein (P29990 2492-3391 limits assumed): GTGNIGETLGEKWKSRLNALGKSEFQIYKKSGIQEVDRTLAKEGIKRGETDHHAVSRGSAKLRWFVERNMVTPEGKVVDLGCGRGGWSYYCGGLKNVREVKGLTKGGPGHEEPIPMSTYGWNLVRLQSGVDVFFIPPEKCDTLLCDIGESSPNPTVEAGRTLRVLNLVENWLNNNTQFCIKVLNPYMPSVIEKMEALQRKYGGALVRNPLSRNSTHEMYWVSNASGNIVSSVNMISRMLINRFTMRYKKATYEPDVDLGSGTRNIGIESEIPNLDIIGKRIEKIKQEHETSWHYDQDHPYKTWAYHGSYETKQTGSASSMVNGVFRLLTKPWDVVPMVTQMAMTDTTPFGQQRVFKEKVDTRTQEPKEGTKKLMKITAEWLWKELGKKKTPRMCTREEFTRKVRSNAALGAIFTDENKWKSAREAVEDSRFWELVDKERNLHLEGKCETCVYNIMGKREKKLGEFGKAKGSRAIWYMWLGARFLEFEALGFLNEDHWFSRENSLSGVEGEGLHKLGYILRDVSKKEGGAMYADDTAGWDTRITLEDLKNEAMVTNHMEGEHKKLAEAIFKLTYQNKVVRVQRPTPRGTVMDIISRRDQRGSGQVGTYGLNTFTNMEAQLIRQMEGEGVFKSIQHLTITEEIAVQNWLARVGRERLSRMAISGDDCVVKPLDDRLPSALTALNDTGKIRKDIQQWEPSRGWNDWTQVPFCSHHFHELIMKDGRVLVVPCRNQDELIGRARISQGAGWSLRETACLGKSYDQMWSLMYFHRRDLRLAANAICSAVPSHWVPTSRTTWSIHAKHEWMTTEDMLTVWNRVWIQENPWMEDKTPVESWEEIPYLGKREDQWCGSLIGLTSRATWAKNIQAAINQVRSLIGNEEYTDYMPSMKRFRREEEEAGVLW
# [11] = viability loss in HeLa cells – cytotoxicity control for MgcRacGAP inhibitor project, dose response (AID 624300); format: functional
# [12] = molecular target: T3, Histone-lysine N-methyltransferase NSD2 (Homo sapiens, UniProt O96028); format: biochemical
# T3 sequence (O96028 whole entry): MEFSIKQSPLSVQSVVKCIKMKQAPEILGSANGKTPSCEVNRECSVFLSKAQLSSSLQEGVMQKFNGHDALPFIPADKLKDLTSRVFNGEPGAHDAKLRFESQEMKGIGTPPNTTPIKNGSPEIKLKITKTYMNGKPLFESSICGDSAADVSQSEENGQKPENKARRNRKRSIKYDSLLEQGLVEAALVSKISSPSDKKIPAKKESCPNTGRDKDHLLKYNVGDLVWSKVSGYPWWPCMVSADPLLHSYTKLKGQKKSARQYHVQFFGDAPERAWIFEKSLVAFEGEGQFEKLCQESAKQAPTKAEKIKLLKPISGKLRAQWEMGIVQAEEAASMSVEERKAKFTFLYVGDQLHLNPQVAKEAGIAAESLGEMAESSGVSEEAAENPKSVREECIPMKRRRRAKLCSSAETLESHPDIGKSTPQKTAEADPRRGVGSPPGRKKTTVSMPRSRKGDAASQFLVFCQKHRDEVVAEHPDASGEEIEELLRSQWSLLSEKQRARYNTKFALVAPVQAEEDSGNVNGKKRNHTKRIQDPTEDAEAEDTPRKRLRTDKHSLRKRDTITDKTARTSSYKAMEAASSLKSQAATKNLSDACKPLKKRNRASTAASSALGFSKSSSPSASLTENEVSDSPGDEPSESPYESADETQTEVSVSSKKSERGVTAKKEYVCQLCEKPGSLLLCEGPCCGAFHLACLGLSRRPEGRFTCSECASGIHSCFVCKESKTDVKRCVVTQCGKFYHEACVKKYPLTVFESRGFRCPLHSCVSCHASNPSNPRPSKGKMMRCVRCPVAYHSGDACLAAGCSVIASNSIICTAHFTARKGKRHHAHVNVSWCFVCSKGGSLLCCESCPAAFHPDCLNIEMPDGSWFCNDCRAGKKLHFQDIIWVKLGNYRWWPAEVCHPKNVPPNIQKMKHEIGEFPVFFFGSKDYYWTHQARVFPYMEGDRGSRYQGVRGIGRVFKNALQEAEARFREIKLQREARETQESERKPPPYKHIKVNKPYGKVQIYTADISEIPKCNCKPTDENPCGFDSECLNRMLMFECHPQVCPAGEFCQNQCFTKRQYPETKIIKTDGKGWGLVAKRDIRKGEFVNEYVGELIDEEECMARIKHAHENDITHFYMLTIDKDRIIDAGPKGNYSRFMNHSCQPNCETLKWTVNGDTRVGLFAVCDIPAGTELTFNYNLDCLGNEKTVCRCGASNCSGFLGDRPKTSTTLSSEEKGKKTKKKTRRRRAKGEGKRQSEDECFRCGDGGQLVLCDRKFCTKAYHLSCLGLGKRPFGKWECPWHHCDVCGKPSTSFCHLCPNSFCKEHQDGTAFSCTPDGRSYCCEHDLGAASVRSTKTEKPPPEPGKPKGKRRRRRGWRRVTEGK
# Hexokinase HKDC1 = molecular target: T4, Hexokinase HKDC1 (Homo sapiens, UniProt Q2TB90); assay: SAR analysis of small molecule inhibitors of hexokinase domain containing I (HKDC1). [Related pubchem assays (depositor defined):AID493160, AID493190]; format: functional
# T4 sequence (Q2TB90 whole entry): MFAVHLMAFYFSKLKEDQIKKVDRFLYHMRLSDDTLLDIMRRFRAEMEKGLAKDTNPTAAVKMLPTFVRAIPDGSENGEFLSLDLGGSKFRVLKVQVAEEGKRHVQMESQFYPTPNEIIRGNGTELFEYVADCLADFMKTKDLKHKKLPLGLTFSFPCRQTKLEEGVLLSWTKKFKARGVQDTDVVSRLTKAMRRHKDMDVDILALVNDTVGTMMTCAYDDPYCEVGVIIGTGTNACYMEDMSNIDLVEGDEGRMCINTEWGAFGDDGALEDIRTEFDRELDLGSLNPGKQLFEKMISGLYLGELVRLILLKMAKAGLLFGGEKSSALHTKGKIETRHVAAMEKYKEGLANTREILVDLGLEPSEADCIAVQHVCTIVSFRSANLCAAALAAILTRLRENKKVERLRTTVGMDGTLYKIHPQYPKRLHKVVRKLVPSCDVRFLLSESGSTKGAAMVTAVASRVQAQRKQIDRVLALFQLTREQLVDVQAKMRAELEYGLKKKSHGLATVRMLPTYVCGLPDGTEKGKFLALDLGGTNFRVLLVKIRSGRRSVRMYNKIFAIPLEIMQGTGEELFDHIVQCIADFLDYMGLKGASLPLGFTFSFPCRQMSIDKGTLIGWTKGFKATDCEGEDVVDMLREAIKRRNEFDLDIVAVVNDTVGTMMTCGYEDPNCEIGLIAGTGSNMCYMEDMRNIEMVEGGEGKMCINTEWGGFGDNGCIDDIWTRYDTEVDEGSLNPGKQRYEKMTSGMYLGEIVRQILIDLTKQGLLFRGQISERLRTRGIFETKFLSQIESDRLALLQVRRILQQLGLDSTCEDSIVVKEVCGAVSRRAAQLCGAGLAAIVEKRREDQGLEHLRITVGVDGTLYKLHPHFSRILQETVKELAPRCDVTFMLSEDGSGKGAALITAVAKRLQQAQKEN
# Hexokinase-1 = molecular target: T5, Hexokinase-1 (Homo sapiens, UniProt P19367); assay: SAR analysis of small molecule inhibitors of hexokinase domain containing I (HKDC1) in the hexokinase 1 selectivity assay. [Related pubchem assays (depositor defined):AID493160, AID493190]; format: functional
# T5 sequence (P19367 whole entry): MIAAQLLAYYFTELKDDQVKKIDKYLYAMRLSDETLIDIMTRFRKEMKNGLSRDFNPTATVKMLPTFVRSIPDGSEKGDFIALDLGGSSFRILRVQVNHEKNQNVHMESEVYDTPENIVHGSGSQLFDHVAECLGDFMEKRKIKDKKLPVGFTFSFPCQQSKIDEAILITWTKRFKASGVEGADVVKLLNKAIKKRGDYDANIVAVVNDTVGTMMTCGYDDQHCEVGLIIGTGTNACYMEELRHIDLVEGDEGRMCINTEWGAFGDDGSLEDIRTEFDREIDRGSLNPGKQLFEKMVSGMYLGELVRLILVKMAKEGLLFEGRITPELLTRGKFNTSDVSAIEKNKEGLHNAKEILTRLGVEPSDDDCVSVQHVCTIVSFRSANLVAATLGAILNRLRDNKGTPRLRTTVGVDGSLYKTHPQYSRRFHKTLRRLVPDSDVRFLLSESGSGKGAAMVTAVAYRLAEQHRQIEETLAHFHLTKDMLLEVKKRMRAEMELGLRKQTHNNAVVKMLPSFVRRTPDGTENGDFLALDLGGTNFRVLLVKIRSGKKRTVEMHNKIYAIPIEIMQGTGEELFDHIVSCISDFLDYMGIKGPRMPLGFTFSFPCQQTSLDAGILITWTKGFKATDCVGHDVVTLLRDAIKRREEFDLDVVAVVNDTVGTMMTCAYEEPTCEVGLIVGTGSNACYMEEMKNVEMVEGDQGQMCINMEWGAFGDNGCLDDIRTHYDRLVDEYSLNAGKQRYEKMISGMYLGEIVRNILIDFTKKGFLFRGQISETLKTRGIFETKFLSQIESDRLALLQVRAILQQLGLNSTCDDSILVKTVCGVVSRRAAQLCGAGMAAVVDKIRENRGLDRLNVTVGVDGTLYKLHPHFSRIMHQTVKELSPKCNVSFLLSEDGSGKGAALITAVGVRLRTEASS
smiles,measurement,setting,value
CC1=NOC(=O)/C1=C/c1ccc(O)c(Cl)c1,IC50,[1],6.99 µM (active)
same,IC50,[2],3.57 µM (active)
CCc1cc2c(Sc3nc4ccccc4s3)ncnc2s1,IC50,[3],> 80 µM (inactive)
same,IC50,Jurkat,< 0.16 µM (active)
same,AC50,[4],> 52 µM (inactive)
same,AC50,HEK293,4.9 µM (active)
same,EC50,[5],3.87 µM (active)
same,EC50,[6],> 120 µM (not active)
same,EC50,[7],16.3 µM (active)
same,CC50,[8],30.2 µM (active)
O=C1C(Cl)=C(N2CCN(CCO)CC2)C(=O)c2c(O)ccc(O)c21,IC50,[9],60.6 µM (inactive)
same,AC50,Keap1/Nrf2,> 52 µM (inactive)
same,IC50,Albumin,29.1 µM (inactive)
same,CC50,Vero,2.85 µM (active)
same,IC50,[10],> 66 µM (inactive)
same,IC50,Genome polyprotein,4.58 µM (active)
same,CC50,[11],12.9 µM (active)
same,AC50,[12],4.44 µM (active)
COc1ccc(Cn2c(/C=C/c3cccnc3)nc3ccccc3c2=O)cc1,IC50,Hexokinase HKDC1,> 80 µM (inactive)
same,IC50,Hexokinase-1,> 80 µM (inactive)
O=C(Nc1cccc(C(F)(F)F)c1)c1cccc(NC(=O)c2ccccn2)c1,IC50,Hexokinase HKDC1,> 80 µM (inactive)
same,IC50,Hexokinase-1,> 80 µM (inactive)
O=c1c2ccccc2nc(/C=C/c2ccc(F)cc2)n1Cc1ccccc1,IC50,Hexokinase HKDC1,> 80 µM (inactive)
same,IC50,Hexokinase-1,> 80 µM (inactive)

# From ChEMBL document CHEMBL1201862, “PubChem BioAssay data set” (2004)
